# Where two headings read alike, the source gives them in different places.
# Columns and labels:
# MRSA = assay: Test A antibacterial assay, broth microdilution MIC; type: cell-based; conditions: Staphylococcus aureus, read-out: MIC MRSA
# Method: (§1) Antibacterial activity can be determined as per Clinical and Laboratory Standards Institute (CLSI) guidelines using a broth microdilution assay in which log-phase bacteria are grown at 37° C. in appropriate medium containing two-fold serial dilutions of a compound to yield final concentrations ranging from 256 to 0.06 μg/mL. For determination of minimal inhibitory concentration (MIC) values, bacterial growth is monitored after 24 to 48 hours by measuring optical density at 600 nm.
# MSSA = assay: as above; type: cell-based; conditions: Staphylococcus aureus, read-out: MIC MSSA
# Method: as §1
# [1] = MIC determined in the presence of 50% mouse serum
# [2] = MIC values may be lower as solubility and aggregate formation may reduce observed activity
Structure (SMILES),MIC (MRSA) [µg/mL],MIC (MSSA) [µg/mL],MIC (MSSA; [1]) [µg/mL],MIC (MRSA; [2]) [µg/mL],MIC (MSSA; [2]) [µg/mL]
CC(=O)NC(=O)c1c(F)ccc(OCc2nc3cc(Cl)cnc3s2)c1F [Example 4],–,–,2,–,–
CCCC(=O)NC(=O)c1c(F)ccc(OCc2nc3cc(Cl)ccc3s2)c1F [Example 6],–,–,–,1,0.5
O=C(NC(=O)C1CCCCC1)c1c(F)ccc(OCc2nc3cc(Cl)ccc3s2)c1F [Example 7],–,–,–,–,0.5
O=C(NC(=O)c1c(F)ccc(OCc2nc3cc(Cl)ccc3s2)c1F)c1ccccc1 [Example 9],–,–,–,–,0.5
O=C(NC(=O)c1c(F)ccc(OCc2nc3cc(Cl)ccc3s2)c1F)c1ccc(CCl)cc1 [Example 13],–,–,4,–,–
O=C(c1c(F)ccc(OCc2nc3cc(Cl)ccc3s2)c1F)N(C(=O)C(F)(F)F)C(=O)C(F)(F)F [Example 14],–,–,2,–,–
CS(=O)(=O)NC(=O)c1c(F)ccc(OCc2nc3cc(Cl)ccc3s2)c1F [Example 15],8,8,–,–,–
O=C(NC(=O)c1c(F)ccc(OCc2nc3cc(Cl)ccc3s2)c1F)c1c(Cl)ccnc1Cl [Example 18],> 64,> 64,–,–,–
CC(C)(C)C(=O)NC(=O)c1c(F)ccc(OCc2nc3cc(Cl)ccc3s2)c1F [Example 20],4,> 64,–,–,–
O=C(NC(=O)c1c(F)ccc(OCc2nc3cc(Cl)ccc3s2)c1F)c1c(Cl)cccc1Cl [Example 24],> 64,> 64,–,–,–
COC(=O)NC(=O)c1c(F)ccc(OCc2nc3cc(Cl)ccc3s2)c1F [Example 26],8,> 64,–,–,–
CN(C)C(=O)NC(=O)c1c(F)ccc(OCc2nc3cc(Cl)ccc3s2)c1F [Example 27],> 64,> 64,–,–,–
CCOC(=O)NC(=O)c1c(F)ccc(OCc2nc3cc(Cl)ccc3s2)c1F [Example 28],8,> 64,–,–,–
COc1cccc(COC(=O)NC(=O)c2c(F)ccc(OCc3nc4cc(Cl)ccc4s3)c2F)c1 [Example 29],32,8,–,–,–
O=C(NC(=O)c1c(F)ccc(OCc2nc3cc(Cl)ccc3s2)c1F)OCCF [Example 31],4,> 64,–,–,–
"O=C(NC(=O)c1c(F)ccc(OCc2nc3cc(Cl)ccc3s2)c1F)Oc1ccccc1 [Example 32, Phenyl(3-((5-chlorobenzo[d]thiazol-2-yl)methoxy)-2,6-difluorobenzoyl)carbamate]",4,4,–,–,–
CN1CCN(C(=O)NC(=O)c2c(F)ccc(OCc3nc4cc(Cl)ccc4s3)c2F)CC1 [Example 33],> 64,> 64,–,–,–
"CN1CCC(OC(=O)NC(=O)c2c(F)ccc(OCc3nc4cc(Cl)ccc4s3)c2F)CC1 [Example 34, 1-methylpiperidin-4-yl (3-((5-chlorobenzo[d]thiazol-2-yl)methoxy)-2,6-difluorobenzoyl)carbamate]",4,32,–,–,–
CC(=O)NC(=O)c1c(F)ccc(OCc2cccc(-c3ccc(C(C)(C)C)cc3)c2)c1F [Example 36],> 64,> 64,–,–,–
CC(C)(C)c1cc(C(=O)NC(=O)c2c(F)ccc(OCc3nc4cc(Cl)ccc4s3)c2F)cc(C(C)(C)C)c1 [Example 37],8,> 64,–,–,–
CC(=O)NC(=O)c1cccc(OCc2nc3cc(Cl)ccc3s2)c1 [Example 38],> 64,> 64,–,–,–
CC(=O)NC(=O)c1c(N2CCN(C)CC2)ccc(OCc2nc3cc(Cl)ccc3s2)c1F [Example 39],> 64,> 64,–,–,–
CN1CCC(C(=O)NC(=O)c2c(Cl)ccc(OCc3nc4cc(Cl)cnc4s3)c2F)CC1 [Example 41],8,4,–,–,–
CN1CCC(C(=O)NC(=O)c2c(F)ccc(OC(CO)c3nc(-c4ccc(C(F)(F)F)cc4)c(Br)o3)c2F)CC1 (stereo not shown) [Example 42],16,1,–,–,–
CCC(=O)N(C(=O)CC)C(=O)c1c(F)ccc(OCc2nc3cc(Cl)ccc3s2)c1F [Example 43],64,64,–,–,–
CN1CCC(C(=O)NC(=O)c2c(F)ccc(OCc3nc(-c4ccc(OC(F)(F)F)cc4)c(Br)o3)c2F)CC1 [Example 46],4,1,–,–,–
CC(C)c1csc(COc2ccc(F)c(C(=O)NC(=O)C3CCN(C)CC3)c2F)n1 [Example 48],8,8,–,–,–
CN1CCC(C(=O)NC(=O)c2c(F)ccc(OCc3nc(-c4ccc(C(F)(F)F)cn4)c(Br)o3)c2F)CC1 [Example 49],16,2,–,–,–
CN1CCC(C(=O)NC(=O)c2c(F)ccc(OCc3nc(-c4ccc(C(F)(F)F)cn4)ns3)c2F)CC1 [Example 50],4,1,–,–,–
CNC(=O)NC(=O)c1c(F)ccc(OCc2nc3cc(Cl)ccc3s2)c1F [Example 51],> 64,> 64,–,–,–

# Continued, values first:
MIC (MRSA) [µg/mL],MIC (MSSA) [µg/mL],MIC (MSSA; [1]) [µg/mL],MIC (MRSA; [2]) [µg/mL],MIC (MSSA; [2]) [µg/mL],Structure (SMILES)
0.125,0.25,–,–,–,O=CNC(=O)c1c(F)ccc(OCc2nc3cc(Cl)ccc3s2)c1F [Example 1]
0.125,0.125,–,–,–,"CN(C)/C=N/C(=O)c1c(F)ccc(OCc2nc3cc(Cl)ccc3s2)c1F [Example 1b, 3-((5-Chlorobenzo[d]thiazol-2-yl)methoxy)-N-((dimethylamino)methylene)-2,6-difluorobenzamide]"
4,2,–,–,–,CC(=O)NC(=O)c1c(F)ccc(OCc2nc3cc(Cl)ccc3s2)c1F [Example 2]
4,2,–,–,–,"C/C(=N\C(=O)c1c(F)ccc(OCc2nc3cc(Cl)ccc3s2)c1F)N(C)C [Example 2a, 3-((5-Chlorobenzo[d]thiazol-2-yl)methoxy)-N-(1-(dimethylamino)ethylidene)-2,6-difluorobenzamide]"
0.5,0.5,–,–,–,O=CNC(=O)c1c(F)ccc(OCc2nc3cc(Cl)cnc3s2)c1F [Example 3]
1,0.5,–,–,–,"CN(C)/C=N/C(=O)c1c(F)ccc(OCc2nc3cc(Cl)cnc3s2)c1F [Example 3b, 3-((6-Chlorothiazolo[5,4-b]pyridin-2-yl)methoxy)-N-((dimethylamino)methylene)-2,6-difluorobenzamide]"
4,4,–,–,–,"C/C(=N\C(=O)c1c(F)ccc(OCc2nc3cc(Cl)cnc3s2)c1F)N(C)C [Example 4a, 3-((6-Chlorothiazolo[5,4-b]pyridin-2-yl)methoxy)-N-(1-(dimethylamino)ethylidene)-2,6-difluorobenzamide]"
0.5,0.5,–,–,–,CN1CCC(C(=O)NC(=O)c2c(F)ccc(OCc3nc4cc(Cl)ccc4s3)c2F)CC1 [Example 8]
0.25,0.125,–,–,–,O=C(CCl)NC(=O)c1c(F)ccc(OCc2nc3cc(Cl)ccc3s2)c1F [Example 10]
1,0.5,–,–,–,CC1CCN(CC(=O)NC(=O)c2c(F)ccc(OCc3nc4cc(Cl)ccc4s3)c2F)CC1 [Example 11]
0.25,0.125,–,–,–,O=C(Cn1ccnc1)NC(=O)c1c(F)ccc(OCc2nc3cc(Cl)ccc3s2)c1F [Example 12]
2,2,–,–,–,O=C(NCO)c1c(F)ccc(OCc2nc3cc(Cl)ccc3s2)c1F [Example 16]
4,> 64,–,–,–,O=C(NC(=O)c1c(F)ccc(OCc2nc3cc(Cl)ccc3s2)c1F)c1ccnc(Cl)c1Cl [Example 19]
2,> 64,–,–,–,O=C(Cc1ccccc1)NC(=O)c1c(F)ccc(OCc2nc3cc(Cl)ccc3s2)c1F [Example 21]
2,0.5,–,–,–,O=C(NC(=O)C1CCC1)c1c(F)ccc(OCc2nc3cc(Cl)ccc3s2)c1F [Example 22]
2,> 64,–,–,–,CC(C(=O)NC(=O)c1c(F)ccc(OCc2nc3cc(Cl)ccc3s2)c1F)c1ccccc1 (stereo not shown) [Example 23]
2,> 64,–,–,–,CCC(C)C(=O)NC(=O)c1c(F)ccc(OCc2nc3cc(Cl)ccc3s2)c1F (stereo not shown) [Example 25]
2,> 64,–,–,–,CC(C)OC(=O)NC(=O)c1c(F)ccc(OCc2nc3cc(Cl)ccc3s2)c1F [Example 30]
2,0.25,–,–,–,CN1CCN(C(=O)NC(=O)c2c(F)ccc(OCc3nc4cc(Cl)cnc4s3)c2F)CC1 [Example 35]
2,> 64,–,–,–,CCC(C)C(=O)NC(=O)c1c(F)ccc(OCc2nc3cc(Cl)cnc3s2)c1F (stereo not shown) [Example 40]
1,0.0625,–,–,–,CN1CCC(C(=O)NC(=O)c2c(F)ccc(OCc3nc(-c4ccc(OC(F)(F)F)cc4)ns3)c2F)CC1 [Example 47]
